Experimental data published in patent US8754094B2, “Methods for heat shock protein dependent cancer treatment” (The Research Foundation of State University of New York, priority 2007, dated 2014).
“Also recorded” adds a separate entry of the source. Read-outs that look alike come from different tables or passages of the source. Residues, ends and D or L forms follow the SMILES beside them. *: point of attachment. Cbz = O=C(OCc1ccccc1)*

What was measured:
NCI-H929 [1] = assay: Annexin V / PI flow cytometry apoptosis assay, NCI-H929; assay type: cell-based, human; conditions: for induction of apoptosis at 18 h: NCI-H929, 18 h, MAL3-101 10 μM, MG-132 0.1 μM, alone or combined
Method: Each experiment was repeated at least three times. Every experimental condition was repeated at least in triplicate wells for every experiment. For cell death assays, 10^6 MM cells were exposed to media or drug for the indicated incubation periods, washed with 1× phosphate-buffered saline (PBS), pH 7.4 (Invitrogen) and resuspended in 500 μL, binding buffer (Annexin V-PI detection kit (Immunotech/Beckman Coulter, Fullerton, Calif.), containing 1 μL, annexin V-fluorescein isothiocyanate (FITC) stock and 5 μL 20 μg/mL […] (PI) to determinate the phosphatidylserine (PS) exposure on the outer plasma membrane. After incubation for 15 minutes at room temperature in the dark, the specimens were quantified by dual-color flow cytometry, acquiring 10,000 events. Cells that were Annexin V-FITC+(with translocation of phosphatidylserine from the inner to the outer leaflet of the plasma membrane) and PI− (with intact cellular membrane) were considered as early apoptotic cells.
Apoptosis induction in control (DMSO-treated) or inhibitor treated cells was determined using an Annexin-V-FLUOS Staining Kit according to the manufacturer's instructions (Roche, Indianapolis, Ind.). Briefly, cells (1×10^5) were harvested at indicated time points after treatment, and Annexin V-fluorescein isothiocyanate (FITC) and propidium iodide (PI) were added to individual samples and incubated for 30 min in a dark environment. Fluorescence was analyzed by a FACSort flow cytometer (BD Biosciences, San Jose, Calif.) by acquiring 10,000 events per sample.

NCI-H929 [2] = assay: cells
Method: For cell survival assays, cells were plated in 96-well culture plates (BD Biosciences, San Jose, Calif.), 100,000 cells/well with 200 μl, of culture media. The effect of the drugs on cell survival was assessed, for example, by measuring 3-(4,5-dimethylthiazol-2-yl)-5-(3-carboxymethoxyphenyl)-2-(4-sulphophenyl)-2H-tetrazolium, inner salt (MTS) (Promega, Madison, Wis.) dye absorbance of viable cells by adding 40 μL of 5 mg/mL MTS to each well for the last 4 hours of drug exposure. Additional wells containing cells only (untreated control) or medium only (background medium control) were used as controls. Absorbance at 490 nm (A490) was measured using a spectrophotometer (Dynatech Laboratories, Chantilly, Va.). Viability was estimated according to the following formula: […]
Briefly, the cellular fraction affected (Fa) was calculated based on an MTS assay after exposing cells to the drugs alone or in combination at a given dose compared to untreated cells, using the formula: Fa=100−% Viable Cells. Fa values were entered into Calcusyn software (Biosoft, Ferguson, Mo. and Cambridge, United Kingdom) to obtain CI values. CI values <1.0 indicated a synergistic effect of the drugs used in combination. For Inhibitory Concentration, or IC, calculations, dose-effect curves for MAL3-101, MG-132, 17-AAG, and their combinations were used to interpolate the median inhibitory concentration that caused 30% (IC30), 50% (IC50), and 70% (IC70) reductions in the % viable cells compared to untreated cells.
Cells (1×10^5) were plated in 96-well microtiter plates (Costar, Cambridge, Mass.) in 100 μL, of growth medium and exposed for indicated periods to various concentrations of compounds or their combinations. Control cells were cultured in DMSO. All studies were performed in triplicate and repeated at least three times independently. Survival was measured by an MTS assay (Promega, Madison, Wis.) as per the manufacturer's directions. The absorbance (A450) ratio of treated to untreated cells, after the subtraction of background absorbance, was multiplied by 100 to obtain percent cell survival. Cell death was measured by trypan blue dye exclusion in identically plated cultures.
DMSO-treated cultures were compared to drug-treated cultures by Student's t tests or by Dunnett's post-hoc test following significant repeated-measures one-way analysis of variance. All tests were two-tailed, and statistical significance was set at P≦0.05. Isobologram analysis was performed to derive combination index (CI) values based upon the Chou-Talalay method using CalcuSyn software (Biosoft, Ferguson, Mo. and Cambridge, United Kingdom) as described in L. Catley, E. Weisberg, T. Kiziltepe, Y. T. Tai, T. Hideshima, P. Neri, P. Tassone, P. Atadja, D. Chauhan, N. C. Munshi, K. C. Anderson, Aggresome induction by proteasome inhibitor Bortezomib and {alpha}-tubulin hyperacetylation by tubulin deacetylase (TDAC) inhibitor LBH589 are synergistic in myeloma cells, Blood (2006), which is incorporated herein by reference.

[3] = read-out: IC50 (reduction of % viable cells), single agent, NCI-H929, 40 h exposure, MTS assay, agent alone

SMILES | apoptosis over time (NCI-H929 [1]; NCI-H929, 10 μM, FACS) | induction of apoptosis at 18 h (NCI-H929 [1]) | cytotoxicity compared among MM cell lines (NCI-H929 [2]; 10 μM, NCI-H929 versus RPMI-8226 and U266) | IC50 (NCI-H929 [2]; [3]) | IC50 (NCI-H929 [2]; read-out: IC50 as stated in the detailed description, multiple myeloma cells, rounded statement of the description) | IC50 (NCI-H929 [2]; Homo sapiens, NCI-H929, 40 h, read-out: IC50 (reduction of % viable cells), single agent, NCI-H929, 40 h exposure, MTS assay, agent alone) | IC50 (NCI-H929 [2]; Homo sapiens, NCI-H929, 40 h, read-out: IC50 of MG-132 in the presence of MAL3-101, NCI-H929, 40 h, MTS, MAL3-101 and MG-132 at equal concentrations)
CCCCCCN(C(=O)CCCCCN1C(=O)NC(c2ccc(-c3ccccc3)cc2)C(C(=O)OCc2ccccc2)=C1C)C(C(=O)NCCCC)c1ccc(OCC(=O)OC)c(C(=O)OC)c1 (stereo not drawn) [MAL3-101] | time-dependent increase in apoptosis | neither drug alone was effective in inducing apoptosis | most sensitive; also recorded: highest level of cytotoxicity | 8300 nM | 10000 nM |  | 
CC(C)C[C@@H](C=O)NC(=O)[C@H](CC(C)C)NC(=O)[C@H](CC(C)C)NC(=O)OCc1ccccc1 [MG-132, reference compound] (Cbz-Leu-Leu-Leu-aldehyde) |  | neither drug alone was effective in inducing apoptosis |  | 1700 nM |  | 1000 nM | 10 nM
